This is an account of results in patent US12173007B2, “Imidazopyridazine IL-17 inhibitor compounds” (Janssen Pharmaceutica NV, priority 2021, dated 2024).

SMILES strings stand for the structures.

This assay has as its system IL-17A-induced G-CSF production in human normal keratinocyte (NHK). Nature of the assay: NHK assay: IL-17A-induced G-CSF production in normal human keratinocytes. The note with it: 24 h, IL-17A 5 ng/mL, G-CSF by HTRF, average if tested more than once. It counts as cell-based. How it is done: IL-17A acts directly on keratinocytes through binding to dimeric receptor IL-17RA/RC and drives the production of a number of inflammatory mediators known to be elevated in psoriasis lesional tissue. IL-17A small molecule inhibitors that block the IL-17A to interact with IL-17R would inhibit the IL-17A signaling in its targeted cells such as keratinocytes. The compound functional activity is evaluated for its impact on IL-17A-induced G-CSF production in human normal keratinocyte (NHK).
Adult normal human keratinocytes are cultured in keratinocyte growth medium (Lonza) in a flask till reaching ˜90% confluence, then cells are transferred to a 384-well plate at density of 3000-4000 cell/well. Recombinant human IL-17A (Gibco PHC9174) is pre-incubated with titrated compound or DMSO for 1 h at rt then added to the cell culture plate. The final concentration of IL-17A is 5 ng/mL and DMSO is 0.2%, in the culture containing 5% FBS. Cells are cultured/treated for 24 h at 37° C. Supernatants are collected and G-CSF production is measured through HTRF technology using Human G-CSF Kit (CisBio). G-CSF concentration was extrapolated from the standard curve and IC50 is determined using GraphPad Prism. Cell viability is also evaluated using CellTiter-Glo kit (Promega) and effect of compound on cell viability is compared to DMSO control.
On the technique in general: Time-resolved FRET reads energy transfer from a long-lived donor to a nearby acceptor.

The compound `COC[C@H](c1cnn2cc([C@H](COC(C)(C)C(F)(F)F)NC(=O)c3ccnn3C(C)C)nc2c1)N1CC(F)(F)CNC1=O` [Example 65, N—((R)-1-(7-((S)-1-(5,5-Difluoro-2-oxotetrahydropyrimidin-1(2H)-yl)-2-methoxyethyl)imidazo[1,2-b]pyridazin-2-yl)-2-((1,1,1-trifluoro-2-methylpropan-2-yl)oxy)ethyl)-1-isopropyl-1H-pyrazole-5-carboxamide] came in with an IC50 (Homo sapiens, Keratinocyte) of less than 50 nM. `CCOCC(c1cnn2cc([C@@H](NC(=O)c3nonc3C3CC3)C3CCC(F)(F)CC3)nc2c1)N1CC(F)(F)CNC1=O` (single isomer, unassigned) [Example 36, 4-Cyclopropyl-N—((S)-(7-((S*)-1-(5,5-difluoro-2-oxotetrahydropyrimidin-1(2H)-yl)-2-ethoxyethyl)imidazo[1,2-b]pyridazin-2-yl)(4,4-difluorocyclohexyl)methyl)-1,2,5-oxadiazole-3-carboxamide] showed a 50% inhibitory concentration (IC50) (Homo sapiens, Keratinocyte) of less than 50 nM. `C[C@H](c1cnn2cc([C@H](COC(C)(C)C(F)(F)F)NC(=O)c3nonc3C3CC3)nc2c1)N1CC(F)(F)CNC1=O` [Example 87, 4-Cyclopropyl-N—((R)-1-(7-((R)-1-(5,5-difluoro-2-oxotetrahydropyrimidin-1(2H)-yl)ethyl)imidazo[1,2-b]pyridazin-2-yl)-2-((1,1,1-trifluoro-2-methylpropan-2-yl)oxy)ethyl)-1,2,5-oxadiazole-3-carboxamide] yielded an IC50 (Homo sapiens, Keratinocyte) of less than 50 nM. In turn, `C[C@H](c1cnn2cc([C@@H](NC(=O)c3nonc3C3CC3)C3CCC(F)(F)CC3)nc2c1)N1CC(F)(F)CNC1=O` [Example 63, 4-Cyclopropyl-N—((S)-(7-((R)-1-(5,5-difluoro-2-oxotetrahydropyrimidin-1(2H)-yl)ethyl)imidazo[1,2-b]pyridazin-2-yl)(4,4-difluorocyclohexyl)methyl)-1,2,5-oxadiazole-3-carboxamide] had a half-maximal inhibitory concentration (IC50) (Homo sapiens, Keratinocyte) of less than 50 nM. In turn, `CCOCC(c1cnn2cc([C@@H](NC(=O)c3nonc3C)C3CCC(F)(F)CC3)nc2c1)N1CC(F)(F)CNC1=O` (single isomer, unassigned) [Example 35, N—((S)-(7-((S*)-1-(5,5-Difluoro-2-oxotetrahydropyrimidin-1(2H)-yl)-2-ethoxyethyl)imidazo[1,2-b]pyridazin-2-yl)(4,4-difluorocyclohexyl)methyl)-4-methyl-1,2,5-oxadiazole-3-carboxamide] showed a half-inhibitory concentration (IC50) (Homo sapiens, Keratinocyte) of less than 50 nM.

Where the note is “Homo sapiens, Keratinocyte”, `COC[C@H](c1cnn2cc([C@H](CC(C)(C)C(F)(F)F)NC(=O)c3nonc3C3CC3)nc2c1)N1CC(F)(F)CNC1=O` [Example 41, 4-Cyclopropyl-N—((S)-1-(7-((S)-1-(5,5-difluoro-2-oxotetrahydropyrimidin-1(2H)-yl)-2-methoxyethyl)imidazo[1,2-b]pyridazin-2-yl)-4,4,4-trifluoro-3,3-dimethylbutyl)-1,2,5-oxadiazole-3-carboxamide] displayed a half-maximal inhibitory concentration (IC50) of less than 50 nM. `Cc1nonc1C(=O)N[C@H](c1cn2ncc(C(COC3CCC3)N3CC(F)(F)CNC3=O)cc2n1)C1CCC(F)(F)CC1` (single isomer, unassigned) [Example 57, N—((S)-(7-((S*)-2-Cyclobutoxy-1-(5,5-difluoro-2-oxotetrahydropyrimidin-1(2H)-yl)ethyl)imidazo[1,2-b]pyridazin-2-yl)(4,4-difluorocyclohexyl)methyl)-4-methyl-1,2,5-oxadiazole-3-carboxamide]: the half-maximal inhibitory concentration (IC50) (Homo sapiens, Keratinocyte) was less than 50 nM. Turning to `Cc1nonc1C(=O)N[C@H](c1cn2ncc([C@@H](C3CC3)N3CCC(C(F)(F)F)NC3=O)cc2n1)C1CCC(F)(F)CC1` (single isomer, unassigned) [Example 48, N—((S)-(7-((R)-Cyclopropyl((S*)-2-oxo-4-(trifluoromethyl)tetrahydropyrimidin-1(2H)-yl)methyl)imidazo[1,2-b]pyridazin-2-yl)(4,4-difluorocyclohexyl)methyl)-4-methyl-1,2,5-oxadiazole-3-carboxamide], where the note is “Homo sapiens, Keratinocyte”, the 50% inhibitory concentration (IC50) is more than 100 nM. `Cc1nonc1C(=O)N[C@H](c1cn2ncc([C@@H](C3CC3)N3CCC(C(F)(F)F)NC3=O)cc2n1)C1CCC(F)(F)CC1` (single isomer, unassigned) [Example 49, N—((S)-(7-((R)-Cyclopropyl((R*)-2-oxo-4-(trifluoromethyl)tetrahydropyrimidin-1(2H)-yl)methyl)imidazo[1,2-b]pyridazin-2-yl)(4,4-difluorocyclohexyl)methyl)-4-methyl-1,2,5-oxadiazole-3-carboxamide] had an IC50 of more than 100 nM. Where the note is “Homo sapiens, Keratinocyte”, `Cc1nonc1C(=O)N[C@@H](COC(C)(C)C(F)(F)F)c1cn2ncc([C@@H](C3CC3)N3CC(F)(F)CNC3=O)cc2n1` [Example 62, N—((R)-1-(7-((R)-Cyclopropyl(5,5-difluoro-2-oxotetrahydropyrimidin-1(2H)-yl)methyl)imidazo[1,2-b]pyridazin-2-yl)-2-((1,1,1-trifluoro-2-methylpropan-2-yl)oxy)ethyl)-4-methyl-1,2,5-oxadiazole-3-carboxamide] returned a concentration for half-maximal inhibition (IC50) of 50 to 100 nM. For the setting “Homo sapiens, Keratinocyte”, `COC[C@H](c1cnn2cc([C@H](NC(=O)c3nonc3C3CC3)[C@@H]3CCC(F)(F)C3)nc2c1)N1CC(F)(F)CNC1=O` (relative stereo) [Example 52, 4-Cyclopropyl-N—((R*)-(7-((S)-1-(5,5-difluoro-2-oxotetrahydropyrimidin-1(2H)-yl)-2-methoxyethyl)imidazo[1,2-b]pyridazin-2-yl)((R*)-3,3-difluorocyclopentyl)methyl)-1,2,5-oxadiazole-3-carboxamide] displayed an IC50 of less than 50 nM. For the compound `CC(C)n1nccc1C(=O)N[C@H](c1cn2ncc([C@@H](COC3CC3)N3CC(F)(F)CNC3=O)cc2n1)C1CCC(F)(F)CC1` [Example 37, N—((S)-(7-((S)-2-Cyclopropoxy-1-(5,5-difluoro-2-oxotetrahydropyrimidin-1(2H)-yl)ethyl)imidazo[1,2-b]pyridazin-2-yl)(4,4-difluorocyclohexyl)methyl)-1-isopropyl-1H-pyrazole-5-carboxamide], the 50% inhibitory concentration (IC50) (Homo sapiens, Keratinocyte) was less than 50 nM.

Where the note is “Homo sapiens, Keratinocyte”, `COC[C@H](c1cnn2cc([C@@H](NC(=O)c3nonc3C3CC3)[C@@H](C)O[C@H](C)C(F)(F)F)nc2c1)N1CC(F)(F)CNC1=O` [Example 42, 4-Cyclopropyl-N-((1R,2R)-1-(7-((S)-1-(5,5-difluoro-2-oxotetrahydropyrimidin-1(2H)-yl)-2-methoxyethyl)imidazo[1,2-b]pyridazin-2-yl)-2-(((R)-1,1,1-trifluoropropan-2-yl)oxy)propyl)-1,2,5-oxadiazole-3-carboxamide] registered an IC50 of less than 50 nM. For the setting “Homo sapiens, Keratinocyte”, `COC[C@H](c1cnn2cc(C(CCC(C)(C)C(F)(F)F)NC(=O)c3nonc3C3CC3)nc2c1)N1CC(F)(F)CNC1=O` (single isomer, unassigned) [Example 46, 4-Cyclopropyl-N—((S*)-1-(7-((S)-1-(5,5-difluoro-2-oxotetrahydropyrimidin-1(2H)-yl)-2-methoxyethyl)imidazo[1,2-b]pyridazin-2-yl)-5,5,5-trifluoro-4,4-dimethylpentyl)-1,2,5-oxadiazole-3-carboxamide] displayed a concentration for half-maximal inhibition (IC50) of less than 50 nM. With `COC[C@H](c1cnn2cc([C@@H](NC(=O)c3nonc3C3CC3)[C@@H](C)O[C@@H](C)C(F)(F)F)nc2c1)N1CC(F)(F)CNC1=O` [Example 43, 4-Cyclopropyl-N-((1R,2R)-1-(7-((S)-1-(5,5-difluoro-2-oxotetrahydropyrimidin-1(2H)-yl)-2-methoxyethyl)imidazo[1,2-b]pyridazin-2-yl)-2-(((S)-1,1,1-trifluoropropan-2-yl)oxy)propyl)-1,2,5-oxadiazole-3-carboxamide], the IC50 (Homo sapiens, Keratinocyte) was less than 50 nM.

What is called IC50 is the point on the concentration scale where inhibition reaches its midpoint. Low readings indicate greater potency in that assay, high ones weaker potency in that assay.
